The target of the test is T1, Dopamine beta hydroxylase (Homo sapiens, UniProt P09172).
T1 construct: 125 μl of plasma; tissue Instituto Português do Sangue Transplantação; host or cells: human plasma from healthy donors
T1 sequence (P09172 40-617 limits assumed): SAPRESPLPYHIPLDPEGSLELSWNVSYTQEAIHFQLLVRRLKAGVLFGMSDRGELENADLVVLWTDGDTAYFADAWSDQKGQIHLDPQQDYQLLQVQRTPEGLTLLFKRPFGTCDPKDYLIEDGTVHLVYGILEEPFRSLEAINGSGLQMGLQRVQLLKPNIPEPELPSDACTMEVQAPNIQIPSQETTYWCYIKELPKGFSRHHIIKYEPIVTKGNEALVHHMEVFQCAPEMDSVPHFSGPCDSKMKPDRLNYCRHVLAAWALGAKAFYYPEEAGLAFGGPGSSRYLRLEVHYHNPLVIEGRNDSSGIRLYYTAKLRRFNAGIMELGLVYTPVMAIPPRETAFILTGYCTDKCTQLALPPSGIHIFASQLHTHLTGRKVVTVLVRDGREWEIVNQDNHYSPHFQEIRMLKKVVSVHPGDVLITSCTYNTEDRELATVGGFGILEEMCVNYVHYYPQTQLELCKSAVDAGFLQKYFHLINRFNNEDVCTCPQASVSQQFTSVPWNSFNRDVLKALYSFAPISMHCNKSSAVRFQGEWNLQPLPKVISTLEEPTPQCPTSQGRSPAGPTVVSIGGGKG
Briefly: Dopamine beta hydroxylase activity in human plasma. The test is classed as biochemical. Conditions: for Plasma (0.01 μM), activity in % of control: inhibitor 0.01 μM; for Plasma (0.1 μM), activity in % of control: inhibitor 0.1 μM; for Plasma (1 μM), activity in % of control: inhibitor 1 μM. Summed up: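 Healthy-donor human plasma pre-incubated 10 min at 37° C with compound at final 10, 100 or 1000 nM in pH 5.0 acetate buffer with ascorbate, fumarate, pargyline, N-ethylmaleimide, catalase and copper sulfate. Tyramine substrate then added for 45 min; octopamine formed was isolated by SCX cartridge, periodate-converted and read at 330 nm; activity given as % control.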

As for `Cn1c(CC(=O)NC2CCCC2)c2n(c1=S)C[C@@H](c1cc(Cl)ccc1F)C2` [Example 245, (R)-2-(6-(5-chloro-2-fluorophenyl)-2-methyl-3-thioxo-2,5,6,7-tetrahydro-3H-pyrrolo[1,2-c]imidazol-1-yl)-N-cyclopentylacetamide], the “Plasma (0.01 μM), activity in % of control” value was 107.8 % of control and the “Plasma (0.1 μM), activity in % of control” value is listed as 93 % of control.

As for `Cn1c(CC(=O)N[C@@H]2CCCOC2)c2n(c1=S)C[C@@]1(c3cc(Cl)ccc3F)C[C@@H]21` [Example 301, 2-((5aS,6aR)-5a-(5-chloro-2-fluorophenyl)-2-methyl-3-thioxo-2,3,5,5a,6,6a-hexahydrocyclopropa[3,4]pyrrolo[1,2-c]imidazol-1-yl)-N—((R)-tetrahydro-2H-pyran-3-yl)acetamide], the “Plasma (0.01 μM), activity in % of control” value is 49.1 % of control and the “Plasma (0.1 μM), activity in % of control” value was 6.4 % of control.

For `O=C(Cc1[nH]c(=S)n2c1C[C@H](c1c(F)c(F)cc(F)c1F)C2)NC1CCS(=O)(=O)CC1` [Example 129, (R)—N-(1,1-dioxidotetrahydro-2H-thiopyran-4-yl)-2-(6-(2,3,5,6-tetrafluorophenyl)-3-thioxo-2,5,6,7-tetrahydro-3H-pyrrolo[1,2-c]imidazol-1-yl)acetamide], the “Plasma (0.01 μM), activity in % of control” value was 50.1 % of control and the “Plasma (0.1 μM), activity in % of control” value is 10.3 % of control.

As to `NC(=O)Cc1[nH]c(=S)n2c1C[C@@H](c1c(F)ccc(Cl)c1F)C2` [Example 108, (S)-2-(6-(3-chloro-2,6-difluorophenyl)-3-thioxo-2,5,6,7-tetrahydro-3H-pyrrolo[1,2-c]imidazol-1-yl)acetamide], the “Plasma (0.1 μM), activity in % of control” value is reported as 46.9 % of control and the “Plasma (1 μM), activity in % of control” value was 5.3 % of control.

`O=C(Cc1[nH]c(=S)n2c1C[C@@H](c1c(F)ccc(Cl)c1F)C2)N[C@H]1CCOC1` [Example 404, 2-((S)-6-(3-chloro-2,6-difluorophenyl)-3-thioxo-2,5,6,7-tetrahydro-3H-pyrrolo[1,2-c]imidazol-1-yl)-N—((S)-tetrahydrofuran-3-yl)acetamide]: the “Plasma (0.01 μM), activity in % of control” value is recorded as 78.7 % of control and the “Plasma (0.1 μM), activity in % of control” value is on record as 26.2 % of control.

Regarding `Cn1c(CC(=O)N[C@@H]2CCOC2)c2n(c1=S)C[C@H](c1c(F)ccc(F)c1F)C2` [Example 412, 2-((S)-2-methyl-3-thioxo-6-(2,3,6-trifluorophenyl)-2,5,6,7-tetrahydro-3H-pyrrolo[1,2-c]imidazol-1-yl)-N—((R)-tetrahydrofuran-3-yl)acetamide], the “Plasma (0.01 μM), activity in % of control” value was 106.2 % of control and the “Plasma (0.1 μM), activity in % of control” value was 63.2 % of control.

Regarding `O=C(Cc1[nH]c(=S)n2c1C[C@H](c1c(F)c(F)cc(F)c1F)C2)NC1CCCC1` [Example 32], the “Plasma (0.1 μM), activity in % of control” value is given as 46.2 % of control and the “Plasma (1 μM), activity in % of control” value is reported as 9.7 % of control.

Take `Cn1c(CC(=O)NCC(F)(F)F)c2n(c1=S)C[C@@]1(c3cc(Cl)ccc3F)C[C@@H]21` [Example 300, 2-((5aS,6aR)-5a-(5-chloro-2-fluorophenyl)-2-methyl-3-thioxo-2,3,5,5a,6,6a-hexahydrocyclopropa[3,4]pyrrolo[1,2-c]imidazol-1-yl)-N-(2,2,2-trifluoroethyl)acetamide]: the “Plasma (0.01 μM), activity in % of control” value is on record as 57.0 % of control and the “Plasma (0.1 μM), activity in % of control” value is 10.9 % of control.

For the compound `CCOC(=O)Cc1[nH]c(=S)n2c1C[C@H](c1c(F)c(F)cc(F)c1F)C2` [Example 63, Ethyl (R)-2-(6-(2,3,5,6-tetrafluorophenyl)-3-thioxo-2,5,6,7-tetrahydro-3H-pyrrolo[1,2-c]imidazol-1-yl)acetate], the “Plasma (0.1 μM), activity in % of control” value is given as 58.3 % of control and the “Plasma (1 μM), activity in % of control” value was 11.9 % of control.

`CN(C(=O)Cc1c2n(c(=S)n1C)C[C@H](c1c(F)ccc(Cl)c1F)C2)C1CCOC1` (stereo partly drawn) [Example 383, 2-((S)-6-(3-chloro-2,6-difluorophenyl)-2-methyl-3-thioxo-2,5,6,7-tetrahydro-3H-pyrrolo[1,2-c]imidazol-1-yl)-N-methyl-N-(tetrahydrofuran-3-yl)acetamide]: the “Plasma (0.01 μM), activity in % of control” value was 65.6 % of control and the “Plasma (0.1 μM), activity in % of control” value was 14.8 % of control.

Turning to `CN(C)C(=O)CN1CCN(C(=O)Cc2[nH]c(=S)n3c2C[C@H](c2c(F)c(F)cc(F)c2F)C3)CC1` [Example 85, (R)—N,N-dimethyl-2-(4-(2-(6-(2,3,5,6-tetrafluorophenyl)-3-thioxo-2,5,6,7-tetrahydro-3H-pyrrolo[1,2-c]imidazol-1-yl)acetyl)piperazin-1-yl)acetamide], the “Plasma (0.1 μM), activity in % of control” value was 59.1 % of control and the “Plasma (1 μM), activity in % of control” value is on record as 12.2 % of control.

Regarding `Cn1c(CC(=O)Nc2ncco2)c2n(c1=S)C[C@@H](c1c(F)ccc(F)c1F)C2` [Example 286, (R)-2-(2-methyl-3-thioxo-6-(2,3,6-trifluorophenyl)-2,5,6,7-tetrahydro-3H-pyrrolo[1,2-c]imidazol-1-yl)-N-(oxazol-2-yl)acetamide], the “Plasma (0.01 μM), activity in % of control” value is 73.8 % of control and the “Plasma (0.1 μM), activity in % of control” value is 3.4 % of control.

`Cn1cc(CNC(=O)Cc2c3n(c(=S)n2C)C[C@H](c2c(F)ccc(Cl)c2F)C3)cn1` [Example 338, (S)-2-(6-(3-chloro-2,6-difluorophenyl)-2-methyl-3-thioxo-2,5,6,7-tetrahydro-3H-pyrrolo[1,2-c]imidazol-1-yl)-N-((1-methyl-1H-pyrazol-4-yl)methyl)acetamide]: the “Plasma (0.01 μM), activity in % of control” value is recorded as 36.4 % of control and the “Plasma (0.1 μM), activity in % of control” value is listed as 6.2 % of control.

As for `Cn1c(CCC(=O)Nc2ccccn2)c2n(c1=S)C[C@H](c1c(F)ccc(Cl)c1F)C2` [Example 268, (S)-3-(6-(3-chloro-2,6-difluorophenyl)-2-methyl-3-thioxo-2,5,6,7-tetrahydro-3H-pyrrolo[1,2-c]imidazol-1-yl)-N-(pyridin-2-yl)propanamide], the “Plasma (0.01 μM), activity in % of control” value is 99.8 % of control and the “Plasma (0.1 μM), activity in % of control” value is 57.7 % of control.

Turning to `CC(C)NC(=O)Cc1c2n(c(=S)n1C)C[C@@]1(c3cc(Cl)ccc3F)C[C@@H]21` [Example 303, 2-((5aS,6aR)-5a-(5-chloro-2-fluorophenyl)-2-methyl-3-thioxo-2,3,5,5a,6,6a-hexahydrocyclopropa[3,4]pyrrolo[1,2-c]imidazol-1-yl)-N-isopropylacetamide], the “Plasma (0.01 μM), activity in % of control” value is 79.3 % of control and the “Plasma (0.1 μM), activity in % of control” value is listed as 34.7 % of control.

In the case of `CN(C(=O)Cc1c2n(c(=S)n1C)C[C@H](c1c(F)ccc(Br)c1F)C2)C1CCOCC1` [Example 405, (S)-2-(6-(3-bromo-2,6-difluorophenyl)-2-methyl-3-thioxo-2,5,6,7-tetrahydro-3H-pyrrolo[1,2-c]imidazol-1-yl)-N-methyl-N-(tetrahydro-2H-pyran-4-yl)acetamide], the “Plasma (0.01 μM), activity in % of control” value is 50.7 % of control and the “Plasma (0.1 μM), activity in % of control” value is on record as 4.5 % of control.

With `O=C(Cc1[nH]c(=S)n2c1[C@@H]1C[C@]1(c1cc(Br)ccc1F)C2)N1CCCC1` [Example 70, 2-((5aS,6aR)-5a-(5-bromo-2-fluorophenyl)-3-thioxo-2,3,5,5a,6,6a-hexahydrocyclopropa[3,4]pyrrolo[1,2-c]imidazol-1-yl)-1-(pyrrolidin-1-yl)ethan-1-one], the “Plasma (0.1 μM), activity in % of control” value is 36.6 % of control and the “Plasma (1 μM), activity in % of control” value was 2.9 % of control.

In the case of `Cn1c(CC(=O)N[C@@H]2CCOC2)c2n(c1=S)C[C@@]1(c3c(F)ccc(Cl)c3F)C[C@@H]21` [Example 274, 2-((5aS,6aR)-5a-(3-chloro-2,6-difluorophenyl)-2-methyl-3-thioxo-2,3,5,5a,6,6a-hexahydrocyclopropa[3,4]pyrrolo[1,2-c]imidazol-1-yl)-N—((R)-tetrahydrofuran-3-yl)acetamide], the “Plasma (0.01 μM), activity in % of control” value is given as 55.9 % of control and the “Plasma (0.1 μM), activity in % of control” value is on record as 11.2 % of control.

As for `Cn1c(CC(=O)N2CCOCC2)c2n(c1=S)C[C@@H](c1c(F)c(F)cc(F)c1F)C2` [Example 242, (R)-2-(2-methyl-6-(2,3,5,6-tetrafluorophenyl)-3-thioxo-2,5,6,7-tetrahydro-3H-pyrrolo[1,2-c]imidazol-1-yl)-1-morpholinoethan-1-one], the “Plasma (0.01 μM), activity in % of control” value is recorded as 91.5 % of control and the “Plasma (0.1 μM), activity in % of control” value was 53.6 % of control.

As to `F.Fc1ccc(Cl)cc1[C@]12C[C@H]1c1c(CCN3CCCCC3)[nH]c(=S)n1C2` [Example 194, (5aS,6aR)-5a-(5-chloro-2-fluorophenyl)-1-(2-(piperidin-1-yl)ethyl)-5,5a,6,6a-tetrahydrocyclopropa[3,4]pyrrolo[1,2-c]imidazole-3(2H)-thione Hydrofluoride], the “Plasma (0.01 μM), activity in % of control” value was 82.9 % of control and the “Plasma (0.1 μM), activity in % of control” value is reported as 62.4 % of control.
